In patent US11986485B1, “Compositions and methods for treating epilepsy” (POVIVA CORP, priority 2023, dated 2024):
Entries after “also recorded” stand apart in the source; their conditions may differ.

Test: Hepatic markers (ALT, AST, ALP, GGT, total bilirubin) during 5-week administration
Assay type: in vivo, humans
Procedure: The study protocol was registered at the ClinicalTrials.gov (accessed on 7 Apr. 2022) (NCT05346562). […] Following a two-week washout, participants then repeated testing for another five weeks under different conditions. Participants visited the laboratory on 6 occasions in total (3 in each study arm), each time following an overnight fast. The complete course of the study was performed at the Department for Integrative Physiology, University of Split School of Medicine, Split, Croatia. The study design, implementation, and reporting followed the CONSORT guidelines, including the 25-item checklist and a flow diagram. The study was conducted according to the guidelines of the Declaration of Helsinki and was approved by the Ethics Committee of University of Split School of Medicine on 15 Dec. 2021 (Class: 003-08/21-03/0003; Reg. No.: 2181-198-03-04-21-0091). Prior to enrollment in the study, every participant was informed about the procedures, course, and purpose of the research and each of them individually signed an informed written consent.
Each patient visited the laboratory 6 times in total. During each visit, a sample of venous blood was taken from forearm following an overnight fast and sample of urine was obtained. All blood and urine samples were analyzed in the same certified institutional biochemical laboratory, using the standard operating procedures.
Hepatic (ALT, AST, ALP, GGT, and total bilirubin) markers were also measured.
Moreover, these changes we<1 standard deviation and therefore viewed as not clinically meaningful. As noted earlier, >3SD over normative values were classified as an AE.

[1] = 5 weeks administration, versus placebo
[2] = 5 weeks administration, versus placebo, listed as CBD

In the case of `C=C(C)[C@@H]1CCC(C)=C[C@H]1c1c(O)cc(CCCCC)cc1O` [Cannabidiol, 2-[(1R,6R)-6-Isopropenyl-3-methylcyclohex-2-en-1-yl]-5-pentylbenzene-1,3-diol], the “plasma alanine transaminase (ALT)” value [1] is reported as “remained effectively unchanged over time”, the “plasma alkaline phosphatase (ALP)” value [1] is reported as “remained effectively unchanged over time” and the plasma total bilirubin [1] is reported as “remained effectively unchanged over time”. The “plasma aspartate transaminase (AST)” value [2] was “higher in the placebo condition; also recorded: remained effectively unchanged over time”, the “plasma gamma-glutamyl transferase (GGT)” value [2] was “slightly higher; also recorded: remained effectively unchanged over time” and the “size of GGT and AST changes” value (viewed as not clinically meaningful) was < 1 standard deviation.
